# Experiments:
# EGFR L858R/C797S = target: T1, EGFR L858R/C797S (Homo sapiens, UniProt P00533, C797S/L858R); test: EGFR degradation HTRF assay in BaF3 LC cells; assay type: cell-based; settings: BaF3 LC (L858R/C797S), maximum percentage of inhibition (degradation); read-out: BaF3 LC Dmax (%)
# T1 construct: expressed in transfected cells; host or cells: BaF3 LC
# Protocol: (§1) BaF3-LTC(L858R/T790M/C797S) cells and BaF3 LC(L858R/C797S) cells are treated with compounds diluted in 0.2% DMSO cell culture medium and incubate for 16 h, 37° C., 5% CO2. the final concentration of compounds in all assay is start with 10 uM, 5-fold dilution, total 8 doses were included.
# (§2) After 16 h treatment, add HTRF lysis buffer to each well; seal the plate and incubate 1 hour at room temperature on a plate shaker; Once the cells are lysed, 16 μL of cell lysate are transferred to a PE 384-well HTRF detection plate; 4 μL of pre-mixed HTRF antibodies are added to each well; Cover the plate with a plate sealer, spin 1000 rpm for 1 min, Incubate overnight at room temperature; Read on BMG PheraStar with HTRF protocol (337 nm-665 nm-620 nm).
# (§3) The inhibition (degradation) percentage of the compound was calculated by the following equation: Inhibition percentage of Compound=100−100×(Signal−low control)/(High control−low control), wherein signal=each test compound group
# (§4) High control=Cell group with added DMSO and without compound, indicating microplate readings without EGFR degradation;
# (§5) Dmax is the maximum percentage of inhibition (degradation).
# (§6) The IC50 (DC50) value of a compound can be obtained by fitting the following equation
# (§7) Y=Bottom+(TOP−Bottom)/(1+((IC50/X)^hillslope))
# (§8) Wherein, X and Y are known values, and IC50, Hillslope, Top and Bottom are the parameters obtained by fitting with software. Y is the inhibition percentage (calculated from the equation), X is the concentration of the compound; IC50 is the concentration of the compound when the 50% inhibition is reached. The smaller the IC50 value is, the stronger the inhibitory ability of the compound is. Vice versa, the higher the IC50 value is, the weaker the inhibitory ability of the compound is; Hillslope represents the slope of the fitted curve, generally around 1*; Bottom represents the minimum value of the curve obtained by data fitting, which is generally 0%±20%; Top represents the maximum value of the curve obtained by data fitting, which is generally 100%±20%. The experimental data were fitted by calculating and analyzing with Dotmatics data analysis software.
# EGFR L858R/T790M/C797S = target: T2, EGFR L858R/T790M/C797S (Homo sapiens, UniProt P00533, C797S/L858R/T790M); test: EGFR degradation HTRF assay in BaF3-LTC cells; assay type: cell-based; settings: BaF3-LTC (L858R/T790M/C797S), maximum percentage of inhibition (degradation); read-out: BaF3-LTC Dmax (%)
# T2 construct: expressed in transfected cells; host or cells: BaF3-LTC
# Protocol: as §1, §2, §3, §4, §5, §6, §7, §8
# T1 sequence (P00533 25-1210 C797S/L858R): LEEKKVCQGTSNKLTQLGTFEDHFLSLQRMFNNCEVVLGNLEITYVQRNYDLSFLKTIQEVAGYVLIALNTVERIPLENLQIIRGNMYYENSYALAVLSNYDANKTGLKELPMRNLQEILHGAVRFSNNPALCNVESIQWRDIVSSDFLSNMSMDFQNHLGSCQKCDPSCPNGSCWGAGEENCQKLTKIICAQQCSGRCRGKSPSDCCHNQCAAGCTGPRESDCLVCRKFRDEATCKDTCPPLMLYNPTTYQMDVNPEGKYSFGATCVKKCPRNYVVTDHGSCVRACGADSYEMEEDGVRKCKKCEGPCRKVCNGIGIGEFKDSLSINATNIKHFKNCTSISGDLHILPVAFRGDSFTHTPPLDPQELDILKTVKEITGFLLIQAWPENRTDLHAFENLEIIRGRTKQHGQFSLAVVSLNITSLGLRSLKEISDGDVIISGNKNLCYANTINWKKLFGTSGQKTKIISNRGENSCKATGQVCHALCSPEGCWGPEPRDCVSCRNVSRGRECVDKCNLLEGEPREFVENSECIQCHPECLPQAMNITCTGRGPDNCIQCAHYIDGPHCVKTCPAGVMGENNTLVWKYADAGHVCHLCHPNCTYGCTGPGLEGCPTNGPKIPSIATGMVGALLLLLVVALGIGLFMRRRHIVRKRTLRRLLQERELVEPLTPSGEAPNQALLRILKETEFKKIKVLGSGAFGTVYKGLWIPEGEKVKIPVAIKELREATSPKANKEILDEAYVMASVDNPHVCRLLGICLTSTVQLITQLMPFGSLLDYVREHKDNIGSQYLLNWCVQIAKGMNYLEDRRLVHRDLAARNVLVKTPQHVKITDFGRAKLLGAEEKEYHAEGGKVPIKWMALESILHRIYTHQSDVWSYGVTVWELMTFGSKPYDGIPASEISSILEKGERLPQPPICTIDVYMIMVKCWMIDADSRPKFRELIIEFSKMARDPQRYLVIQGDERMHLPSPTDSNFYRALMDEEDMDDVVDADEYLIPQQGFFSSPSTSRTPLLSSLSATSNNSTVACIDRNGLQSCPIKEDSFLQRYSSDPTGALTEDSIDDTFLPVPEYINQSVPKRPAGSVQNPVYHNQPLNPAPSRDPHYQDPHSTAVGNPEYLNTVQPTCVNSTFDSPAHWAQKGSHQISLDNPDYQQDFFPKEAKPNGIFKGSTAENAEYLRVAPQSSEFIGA
# T2 sequence (P00533 25-1210 T790M/C797S/L858R): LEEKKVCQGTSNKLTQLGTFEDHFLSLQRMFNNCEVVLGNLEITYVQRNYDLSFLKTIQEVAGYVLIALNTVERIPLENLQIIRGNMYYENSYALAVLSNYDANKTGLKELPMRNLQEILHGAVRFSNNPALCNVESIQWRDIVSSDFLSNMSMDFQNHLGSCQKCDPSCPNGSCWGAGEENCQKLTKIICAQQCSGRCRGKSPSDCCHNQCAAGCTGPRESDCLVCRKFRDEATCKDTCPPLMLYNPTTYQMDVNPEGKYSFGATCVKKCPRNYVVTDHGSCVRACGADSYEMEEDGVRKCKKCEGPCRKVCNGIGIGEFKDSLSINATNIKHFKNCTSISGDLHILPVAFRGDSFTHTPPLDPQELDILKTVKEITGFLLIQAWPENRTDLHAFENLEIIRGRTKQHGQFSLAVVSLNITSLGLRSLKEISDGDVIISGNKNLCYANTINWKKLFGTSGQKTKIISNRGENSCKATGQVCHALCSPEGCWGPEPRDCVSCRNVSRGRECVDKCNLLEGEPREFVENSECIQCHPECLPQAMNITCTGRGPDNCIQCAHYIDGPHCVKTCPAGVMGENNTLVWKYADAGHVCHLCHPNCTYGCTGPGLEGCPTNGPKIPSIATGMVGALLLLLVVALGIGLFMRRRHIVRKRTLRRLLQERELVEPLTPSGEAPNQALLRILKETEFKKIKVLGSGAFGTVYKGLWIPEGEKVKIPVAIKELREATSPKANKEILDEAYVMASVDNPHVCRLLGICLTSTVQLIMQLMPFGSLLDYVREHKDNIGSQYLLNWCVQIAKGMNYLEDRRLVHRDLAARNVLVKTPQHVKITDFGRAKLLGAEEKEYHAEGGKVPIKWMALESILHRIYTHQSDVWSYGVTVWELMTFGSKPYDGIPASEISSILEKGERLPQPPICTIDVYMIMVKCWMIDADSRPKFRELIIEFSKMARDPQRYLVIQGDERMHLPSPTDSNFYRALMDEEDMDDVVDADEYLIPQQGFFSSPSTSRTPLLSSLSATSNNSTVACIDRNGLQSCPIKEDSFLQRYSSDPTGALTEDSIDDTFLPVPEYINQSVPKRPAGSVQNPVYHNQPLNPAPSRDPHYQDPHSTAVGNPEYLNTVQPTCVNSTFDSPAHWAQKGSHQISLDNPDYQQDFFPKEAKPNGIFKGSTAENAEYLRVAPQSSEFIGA
SMILES,Dmax (EGFR L858R/C797S) [%],Dmax (EGFR L858R/T790M/C797S) [%]
"CCOc1cc(N2CCC(N3CCN(CCc4cc(F)c([C@H]5CCC(=O)NC5=O)c(F)c4)CC3)CC2)c(CC)cc1Nc1ncc(Br)c(Nc2ccc3nc(CC)ncc3c2P(C)(C)=O)n1 [Example 460, (R)-3-(4-(2-(4-(1-(4-((5-bromo-4-((5-(dimethylphosphoryl)-2-ethylquinazolin-6-yl)amino)pyrimidin-2-yl)amino)-5-ethoxy-2-ethylphenyl)piperidin-4-yl)piperazin-1-yl)ethyl)-2,6-difluorophenyl)piperidine-2,6-dione]",88.2,82.5
"CCOc1cc(N2CCC(N3CCN(CCc4cc(F)cc5c4n(C)c(=O)n5C4CCC(=O)NC4=O)CC3)CC2)c(CC)cc1Nc1ncc(Br)c(Nc2ccc3nc(CC)ccc3c2P(C)(C)=O)n1 (stereo not drawn) [Example 462, 3-(4-(2-(4-(1-(4-((5-bromo-4-((5-(dimethylphosphoryl)-2-ethylquinolin-6-yl)amino)pyrimidin-2-yl)amino)-5-ethoxy-2-ethylphenyl)piperidin-4-yl)piperazin-1-yl)ethyl)-6-fluoro-3-methyl-2-oxo-2,3-dihydro-1H-benzo[d]imidazol-1-yl)piperidine-2,6-dione]",89.9,84.5
"CCOc1cc(N2CCC(N3CCN(CCc4cccc5c4oc(=O)n5C4CCC(=O)NC4=O)CC3)CC2)c(CC)cc1Nc1ncc(Br)c(Nc2ccc3nc(CC)ccc3c2P(C)(C)=O)n1 (stereo not drawn) [Example 473, 3-(7-(2-(4-(1-(4-((5-bromo-4-((5-(dimethylphosphoryl)-2-ethylquinolin-6-yl)amino)pyrimidin-2-yl)amino)-5-ethoxy-2-ethylphenyl)piperidin-4-yl)piperazin-1-yl)ethyl)-2-oxobenzo[d]oxazol-3(2H)-yl)piperidine-2,6-dione]",85.5,94.6
"CCOc1cc(N2CCC(N3CCN(CCc4cc(F)c([C@H]5CCC(=O)NC5=O)c(F)c4)CC3)CC2)c(CC)cc1Nc1ncc(Br)c(Nc2ccc3nc(CC)ccc3c2P(C)(C)=O)n1 [Example 483, (R)-3-(4-(2-(4-(1-(4-((5-bromo-4-((5-(dimethylphosphoryl)-2-ethylquinolin-6-yl)amino)pyrimidin-2-yl)amino)-5-ethoxy-2-ethylphenyl)piperidin-4-yl)piperazin-1-yl)ethyl)-2,6-difluorophenyl)piperidine-2,6-dione]",83.2,86.9
"CCc1ccc2c(P(C)(C)=O)c(Nc3nc(Nc4cc(CC)c(N5CCC(N6CCN(CCc7cc(F)c([C@H]8CCC(=O)NC8=O)c(F)c7)CC6)CC5)cc4OC)ncc3Br)ccc2n1 [Example 484, (R)-3-(4-(2-(4-(1-(4-((5-bromo-4-((5-(dimethylphosphoryl)-2-ethylquinolin-6-yl)amino)pyrimidin-2-yl)amino)-2-ethyl-5-methoxyphenyl)piperidin-4-yl)piperazin-1-yl)ethyl)-2,6-difluorophenyl)piperidine-2,6-dione]",91.6,95.4
"CCc1ccc2c(P(C)(C)=O)c(Nc3nc(Nc4cc(CC)c(N5CCC(N6CCN(CCc7cc(F)c(C8CCC(=O)NC8=O)c(F)c7)CC6)CC5)cc4OC)ncc3Br)ccc2n1 (stereo not drawn) [Example 485, 3-(4-(2-(4-(1-(4-((5-bromo-4-((5-(dimethylphosphoryl)-2-ethylquinolin-6-yl)amino)pyrimidin-2-yl)amino)-2-ethyl-5-methoxyphenyl)piperidin-4-yl)piperazin-1-yl)ethyl)-2,6-difluorophenyl)piperidine-2,6-dione]",88.3,88.5
"CCc1cc(Nc2ncc(Br)c(Nc3ccc4nc(C5CC5)ccc4c3P(C)(C)=O)n2)c(OC)cc1N1CCC(N2CCN(CCc3cc(F)c([C@H]4CCC(=O)NC4=O)c(F)c3)CC2)CC1 [Example 741, (R)-3-(4-(2-(4-(1-(4-((5-bromo-4-((2-cyclopropyl-5-(dimethylphosphoryl)quinolin-6-yl)amino)pyrimidin-2-yl)amino)-2-ethyl-5-methoxyphenyl)piperidin-4-yl)piperazin-1-yl)ethyl)-2,6-difluorophenyl)piperidine-2,6-dione]",,96.6

# Continued, values first:
Dmax (EGFR L858R/C797S) [%],Dmax (EGFR L858R/T790M/C797S) [%],SMILES
,78.1,"CCOc1cc(N2CCC(N3CCN(CCc4cc(F)c(F)c5c4n(CC)c(=O)n5C4CCC(=O)NC4=O)CC3)CC2)c(CC)cc1Nc1ncc(Br)c(Nc2ccc3nc(CC)ccc3c2P(C)(C)=O)n1 (stereo not drawn) [Example 742, 3-(4-(2-(4-(1-(4-((5-bromo-4-((5-(dimethylphosphoryl)-2-ethylquinolin-6-yl)amino)pyrimidin-2-yl)amino)-5-ethoxy-2-ethylphenyl)piperidin-4-yl)piperazin-1-yl)ethyl)-3-ethyl-6,7-difluoro-2-oxo-2,3-dihydro-1H-benzo[d]imidazol-1-yl)piperidine-2,6-dione]"
,92.3,"CCc1ccc2c(P(C)(C)=O)c(Nc3nc(Nc4cc(CC)c(N5CCC(N6CCN(CCc7cc(F)c([C@H]8CCC(=O)NC8=O)c(F)c7)CC6)CC5)cc4OC)ncc3Cl)ccc2n1 [Example 744, (R)-3-(4-(2-(4-(1-(4-((5-chloro-4-((5-(dimethylphosphoryl)-2-ethylquinolin-6-yl)amino)pyrimidin-2-yl)amino)-2-ethyl-5-methoxyphenyl)piperidin-4-yl)piperazin-1-yl)ethyl)-2,6-difluorophenyl)piperidine-2,6-dione]"
,88.7,"CCc1ccc2c(P(C)(C)=O)c(Nc3nc(Nc4cc(CC)c(N5CCC(C6CCN(CCc7cc(F)c([C@H]8CCC(=O)NC8=O)c(F)c7)CC6)CC5)cc4OC)ncc3Br)ccc2n1 [Example 745, (R)-3-(4-(2-(1′-(4-((5-bromo-4-((5-(dimethylphosphoryl)-2-ethylquinolin-6-yl)amino)pyrimidin-2-yl)amino)-2-ethyl-5-methoxyphenyl)-[4,4′-bipiperidin]-1-yl)ethyl)-2,6-difluorophenyl)piperidine-2,6-dione]"
,95.5,"CCOc1cc(N2CCC(N3CCN(C(=O)[C@H]4CN(c5cc(F)c([C@H]6CCC(=O)NC6=O)c(F)c5)CC4(C)C)CC3)CC2)c(CC)cc1Nc1ncc(Br)c(Nc2cc(F)c3nc(CC)ccc3c2P(C)(C)=O)n1 [Example 746, (R)-3-(4-((R)-4-(4-(1-(4-((5-bromo-4-((5-(dimethylphosphoryl)-2-ethyl-8-fluoroquinolin-6-yl)amino)pyrimidin-2-yl)amino)-5-ethoxy-2-ethylphenyl)piperidin-4-yl)piperazine-1-carbonyl)-3,3-dimethylpyrrolidin-1-yl)-2,6-difluorophenyl)piperidine-2,6-dione]"
,96.2,"CCOc1cc(N2CCC(N3CCN(C(=O)[C@H]4CN(c5cc(F)c([C@H]6CCC(=O)NC6=O)c(F)c5)CC4(C)C)CC3)CC2)c(CC)cc1Nc1ncc(Br)c(Nc2ccc3nc(C)ccc3c2P(C)(C)=O)n1 [Example 747, (R)-3-(4-((R)-4-(4-(1-(4-((5-bromo-4-((5-(dimethylphosphoryl)-2-methylquinolin-6-yl)amino)pyrimidin-2-yl)amino)-5-ethoxy-2-ethylphenyl)piperidin-4-yl)piperazine-1-carbonyl)-3,3-dimethylpyrrolidin-1-yl)-2,6-difluorophenyl)piperidine-2,6-dione]"
,93.6,"CCc1ncc2c(P(C)(C)=O)c(Nc3nc(Nc4cc(C)c(N5CCC(N6CCN(CCc7cc(F)c([C@H]8CCC(=O)NC8=O)c(F)c7)CC6)CC5)cc4OC)ncc3Br)ccc2n1 [Example 748, (R)-3-(4-(2-(4-(1-(4-((5-bromo-4-((5-(dimethylphosphoryl)-2-ethylquinazolin-6-yl)amino)pyrimidin-2-yl)amino)-5-methoxy-2-methylphenyl)piperidin-4-yl)piperazin-1-yl)ethyl)-2,6-difluorophenyl)piperidine-2,6-dione]"
,35.9,"CCOc1cc(N2CCC(N3CCN(CCc4cc(F)c([C@H]5CCC(=O)NC5=O)c(F)c4)CC3)CC2)c(CC)cc1Nc1nccc(Nc2ccc3nc(CC)ncc3c2P(C)(C)=O)n1 [Example 749, (R)-3-(4-(2-(4-(1-(4-((4-((5-(dimethylphosphoryl)-2-ethylquinazolin-6-yl)amino)pyrimidin-2-yl)amino)-5-ethoxy-2-ethylphenyl)piperidin-4-yl)piperazin-1-yl)ethyl)-2,6-difluorophenyl)piperidine-2,6-dione]"
,94.6,"CCc1cc(Nc2ncc(Br)c(Nc3ccc4nccnc4c3P(C)(C)=O)n2)c(OC)cc1N1CCC(N2CCN(CCc3cc(F)c([C@H]4CCC(=O)NC4=O)c(F)c3)CC2)CC1 [Example 751, (R)-3-(4-(2-(4-(1-(4-((5-bromo-4-((5-(dimethylphosphoryl)quinoxalin-6-yl)amino)pyrimidin-2-yl)amino)-2-ethyl-5-methoxyphenyl)piperidin-4-yl)piperazin-1-yl)ethyl)-2,6-difluorophenyl)piperidine-2,6-dione]"

# — US20230248834A1, “DEGRADATION OF (EGFR) BY CONJUGATION OF EGFR INHIBITORS WITH E3 LIGASE LIGAND AND METHODS OF USE” (BEIGENE, LTD., priority 2020, published 2023)
